Results taken from patent US11684607B2, “Secnidazole for use in the treatment of bacterial vaginosis” (priority 2014, dated 2023).

Key:
[1] = Safety evaluation (adverse events, vital signs, ECGs, laboratory tests) after single 1 g or 2 g dose of SYM-1219; format: in vivo, human; settings: single 1 g or 2 g oral dose; healthy female subjects
Protocol: Methods: 28 healthy female subjects (14/group) ages 18-65 years were randomized to receive a single oral dose of either 1 or 2 grams of SYM-1219, mixed into 4 oz. of applesauce. […] Safety was evaluated by recording adverse events, vital signs, ECGs and laboratory tests.

[2] = Single oral dose pharmacokinetics (plasma and urine) of SYM-1219 microgranule formulation in fasted healthy female subjects; settings: for AUC(0-t): AUC0-t; for CL renal: CLr
Protocol: A non-compartmental analysis was performed and the PK parameters for each treatment group are reported.

[3] = female, human, plasma, po, 1 g, Geometric Mean, 1 gram single oral dose, fasted, N = 14
[4] = female, human, plasma, po, 1 g, Mean, 1 gram single oral dose, fasted, N = 14
[5] = female, human, plasma, po, 1 g, Median, 1 gram single oral dose, fasted, N = 14
[6] = plasma, 1 gram single oral dose, fasted, N = 14
[7] = plasma, 2 grams single oral dose, fasted, N = 14
[8] = urine, 1 gram single oral dose, fasted, N = 14
[9] = urine, 2 grams single oral dose, fasted, N = 14

Cc1ncc([N+](=O)[O-])n1CC(C)O (centres unmarked) [SYM-1219, 1-(2-hydroxypropyl)-2-methyl-5-nitromidazole]
changes in vital signs, electrocardiogram (ECG) or laboratory parameters [1]: no significant changes
safety and tolerability [1]: safe and well-tolerated
severity and outcome of all adverse events [1]: mild and resolved without sequelae
intersubject variability for Cmax and AUC ([2]; 1 g and 2 g doses): < 20 % CV
renal clearance as percentage of the glomerular filtration rate typically found in healthy subjects ([2]; 1 g and 2 g doses): < 5%
Urinary excretion of unchanged SYM-1219, share of the administered dose ([2]; 1 g dose): 13.6%
Urinary excretion of unchanged SYM-1219, share of the administered dose ([2]; 2 g dose): 15.3%
time by which maximum concentrations were achieved ([2]; both dose groups (1 g and 2 g)): approximately 4 hrs.
dose proportionality of pharmacokinetics ([2]; comparing the 1 and 2 g doses): dose proportional
AUC(0-inf) ([2]; female, human, plasma, oral, 1 g, Exposure estimate (AUCinf)): 619 µg·h/mL
AUC(0-inf) ([2]; female, human, plasma, oral, 2 g, Exposure estimate (AUCinf)): 1330 µg·h/mL
Tmax ([2]; female, human, plasma, po, 1 g): 3.06 h
AUC(0-t) [2, 3]: 603 µg·h/mL
AUC(0-t) [2, 4]: 610 µg·h/mL
AUC(0-t) [2, 5]: 587 µg·h/mL
Cmax [2, 3]: 22400 ng/mL
Cmax [2, 4]: 22600 ng/mL
Cmax [2, 5]: 22800 ng/mL
AUC(0-inf) ([2]; female, human, plasma, po, 1 gram, AUC0-∞, Geometric Mean, 1 gram single oral dose, fasted, N = 14): 612 µg·h/mL
AUC(0-inf) ([2]; female, human, plasma, po, 1 gram, AUC0-∞, Mean, 1 gram single oral dose, fasted, N = 14): 619 µg·h/mL
AUC(0-inf) ([2]; female, human, plasma, po, 1 gram, AUC0-∞, Median, 1 gram single oral dose, fasted, N = 14): 595 µg·h/mL
CL renal ([2]; female, human, urine, po, 1 gram, Geometric Mean, 1 gram single oral dose, fasted, N = 14): 3.65 mL/min
CL renal ([2]; female, human, urine, po, 1 gram, Mean, 1 gram single oral dose, fasted, N = 14): 3.74 mL/min
Mean maximum concentration ([2]; plasma, 1 g dose): 22.6 µg/mL
t1/2, Mean [2, 6]: 17.05 h
t1/2, Median [2, 6]: 16.79 h
λz, Mean [2, 6]: 0.04099 h⁻¹
λz, Median [2, 6]: 0.04129 h⁻¹
Mean maximum concentration ([2]; plasma, 2 g dose): 45.4 µg/mL
AUC0-t, Geometric Mean [2, 7]: 1305.35 µg·h/mL
AUC0-t, Mean [2, 7]: 1322.40 µg·h/mL
AUC0-t, Median [2, 7]: 1290.41 µg·h/mL
AUC0-∞, Geometric Mean [2, 7]: 1314.74 µg·h/mL
AUC0-∞, Mean [2, 7]: 1331.63 µg·h/mL
AUC0-∞, Median [2, 7]: 1299.10 µg·h/mL
Cmax, Geometric Mean [2, 7]: 44840 ng/mL
Cmax, Mean [2, 7]: 45430 ng/mL
Cmax, Median [2, 7]: 45050 ng/mL
Tmax, Median [2, 7]: 4.000 h
t1/2, Mean [2, 7]: 16.86 h
t1/2, Median [2, 7]: 17.13 h
λz, Mean [2, 7]: 0.0422 h⁻¹
λz, Median [2, 7]: 0.04047 h⁻¹
% FE, Geometric Mean [2, 8]: 13.403%
% FE, Mean [2, 8]: 13.602%
% FE, Median [2, 8]: 13.981%
Ae0-168, Geometric Mean [2, 8]: 0.134 g
Ae0-168, Mean [2, 8]: 0.136 g
Ae0-168, Median [2, 8]: 0.140 g
CLr, Median [2, 8]: 3.965 mL/min
% FE, Geometric Mean [2, 9]: 14.991%
% FE, Mean [2, 9]: 15.300%
% FE, Median [2, 9]: 14.943%
Ae0-168, Geometric Mean [2, 9]: 0.300 g
Ae0-168, Mean [2, 9]: 0.306 g
Ae0-168, Median [2, 9]: 0.299 g
CLr, Geometric Mean [2, 9]: 3.801 mL/min
CLr, Mean [2, 9]: 3.935 mL/min
CLr, Median [2, 9]: 3.962 mL/min
